Measured values taken from EP0109362A1, “Hetereocyclic compounds, process for their preparation, pharmaceutical compositions containing them and their use” (CIBA-GEIGY AG, priority 1982, dated 1984).
In brackets after ≈: the same amount, converted by molar mass. Read-outs that look alike come from different tables or passages of the source.

How the values were obtained:
[1] = test system: Klebsiella pneumoniae 327; test: in vitro antibacterial test (MIC); assay type: cell-based
[2] = test system: Staphylococcus aureus lOB; test: systemic infection of the mouse (ED50); assay type: in vivo, Maus; settings: sc
From the text: (§1) Die Verbindungen der Formel I weisen wertvolle pharmakologische Eigenschaften auf, oder können als Zwischenprodukte zur Herstellung von solchen Verbindungen mit wertvollen pharmakologischen Eigenschaften verwendet werden. Verbindungen der Formel I, worin R1 Wasserstoff oder Methyl ist, Rz Hydroxybedeutet, R3 Carboxyl oder eine unter physiologischen Bedingungen spaltbare veresterte Carboxylgruppe bedeutet und R4 die unter Formel I angegebene Bedeutung hat, und pharmakologisch verwendbare Salze von solchen Verbindungen mit salzbildenden Gruppen haben antibakterielle Wirkungen. Beispielsweise sind sie in vitro gegen grampositive und gramnegative Kokken, z.B. Staphylococcus aureus, Streptococcus pyogenes, Streptococcus pneumoniae, Streptococcus faecalis, Neisseria meningitidis und Neisseria gonorrhoeae, und gegen gramnegative Stäbchenbakterien, wie Enterobacteriaceae, Haemophilus influenzae und Pseudomonas aeruginosa, und Anaerobier, z.B. Bacteroides sp., in minimalen Konzentrationen von ca. 0,01 bis ca. 64 µg/ml wirksam. In vivo, bei der systemischen Infektion der Maus, z.B. durch Staphylococcus aureus oder Streptococcus pyogenes, ergeben sich bei subkutaner oder oraler Applikation ED50 -Werte von ca. 0,3 bis ca. 30 mg/kg. […]

Escherichia coli 16 = test: in vitro antibacterial test (MIC); assay type: cell-based
[3] = test system: Clostridium perfringens 194; test: microbe, parasite or virus in culture; assay type: cell-based
[4] = test system: Haemophilus influenzae NCTC 4560; test: in vitro antibacterial test (MIC); assay type: cell-based; settings: NCTC4560
Escherichia coli 205 = test: in vitro antibacterial test (MIC); assay type: cell-based
Proteus morganii 1518 = test: in vitro antibacterial test (MIC); assay type: cell-based; settings: Morganella morganii
[5] = test system: Enterobacter cloacae P 99; test: in vitro antibacterial test (MIC); assay type: cell-based; settings: P99
Proteus mirabilis 774 = test: in vitro antibacterial test (MIC); assay type: cell-based
[6] = test system: Pseudomonas aeruginosa ATCC 12055; test: in vitro antibacterial test (MIC); assay type: cell-based; settings: ATCC12055
Escherichia coli DC 2 = test: in vitro antibacterial test (MIC); assay type: cell-based; settings: DC2; Escherichia coli DC 2, in vitro
From the text: as §1, with “mg/kg. Beispielsweise weisen Natrium-(5R,6S)-2-[3-(2-methyl-tetrazol-5-yl)-propyl]-6-hydroxymethyl-2-penem 3-carboxylat (Verbindung A) und (5R,65)-2-[3-(2-Methyl-1,3,4-oxadiazo1-5-yl)-propyl]-6-hydroxymethyl-2-penem-3-carbonsäure (Verbindung B) in dem genannten in-vitro-Test die folgenden Werte auf:” for “mg/kg.”

Escherichia coli UB 1005 = test: in vitro antibacterial test (MIC); assay type: cell-based; settings: UB1005; Escherichia coli UB 1005, in vitro
From the text: as §1, with “mg/kg. Beispielsweise weisen Natrium-(5R,6S)-2-[3-(2-methyl-tetrazol-5-yl)-propyl]-6-hydroxymethyl-2-penem 3-carboxylat (Verbindung A) und (5R,65)-2-[3-(2-Methyl-1,3,4-oxadiazo1-5-yl)-propyl]-6-hydroxymethyl-2-penem-3-carbonsäure (Verbindung B) in dem genannten in-vitro-Test die folgenden Werte auf:” for “mg/kg.”

[7] = test system: Streptococcus pyogenes Aronson; test: in vitro antibacterial test (MIC); assay type: cell-based
[8] = test system: Neisseria gonorrhoeae 1317-4; test: in vitro antibacterial test (MIC); assay type: cell-based; settings: 13174
[9] = test system: Escherichia coli 205 R+TEM; test: in vitro antibacterial test (MIC); assay type: cell-based
Proteus mirabilis 1219 = test: in vitro antibacterial test (MIC); assay type: cell-based
[10] = test system: Staphylococcus aureus 2999i+p+; test: in vitro antibacterial test (MIC); assay type: cell-based
[11] = test system: Pseudomonas aeruginosa K 799/61; test: in vitro antibacterial test (MIC); assay type: cell-based; settings: K799/61
[12] = test system: Streptococcus pneumoniae III/84; test: in vitro antibacterial test (MIC); assay type: cell-based
Proteus morganii 2359 = test: in vitro antibacterial test (MIC); assay type: cell-based; settings: Morganella morganii
[13] = test system: Bacteroides fragilis L 01; test: in vitro antibacterial test (MIC); assay type: cell-based; settings: L01
[14] = test system: Neisseria meningitidis 1316; test: in vitro antibacterial test (MIC); assay type: cell-based
Serratia marcescens 344 = test: in vitro antibacterial test (MIC); assay type: cell-based
[15] = test system: Staphylococcus aureus 10 B; test: in vitro antibacterial test (MIC); assay type: cell-based
Proteus rettgeri 856 = test: in vitro antibacterial test (MIC); assay type: cell-based; settings: Providencia rettgeri
[16] = test system: Streptococcus faecalis D 3; test: in vitro antibacterial test (MIC); assay type: cell-based; settings: Enterococcus faecalis, D3

In the case of `Cn1nnc(CCCC2=C(C(=O)[O-])N3C(=O)[C@H](CO)[C@H]3S2)n1.[Na+]` [Verbindung A, Natrium-(5R,6S)-2-[3-(2-methyl-tetrazol-5-yl)-propyl]-6-hydroxymethyl-2-penem 3-carboxylat], the MIC ([1]; Klebsiella pneumoniae, 327) is reported as 4 mg/L, the ED50 ([2]; Staphylococcus aureus) is reported as 3 to 10 mg/kg and the MIC (Escherichia coli 16; Escherichia coli, 16) is reported as 32 mg/L. The MIC [3] was 0.2 mg/L, the MIC ([4]; Haemophilus influenzae) was 2 mg/L and the MIC (Escherichia coli 205; Escherichia coli, 205) was 4 mg/L. The MIC (Proteus morganii 1518; 1518) was 16 mg/L, the MIC [5] was 32 mg/L and the MIC (Proteus mirabilis 774; Proteus mirabilis, 774) was 4 mg/L. For the same compound, the MIC ([6]; Pseudomonas aeruginosa) was > 128 mg/L, the MIC (Escherichia coli DC 2) was 2 mg/L and the MIC (Escherichia coli UB 1005) was 8 mg/L. The MIC ([7]; Streptococcus pyogenes) was 0.2 mg/L, the MIC ([8]; Neisseria gonorrhoeae) was 0.01 mg/L and the MIC [9] was 8 mg/L. It also gave an MIC (Proteus mirabilis 1219; Proteus mirabilis, 1219) of 8 mg/L, an MIC ([10]; Staphylococcus aureus) of 0.2 mg/L and an MIC [11] of 2 mg/L. The MIC ([12]; Streptococcus pneumoniae) was 0.05 mg/L, the MIC (Proteus morganii 2359; 2359) was 2 mg/L and the MIC ([13]; Bacteroides fragilis) was 0.5 mg/L. It also gave an MIC ([14]; Neisseria meningitidis, 1316) of 0.01 mg/L, an MIC (Serratia marcescens 344; Serratia marcescens, 344) of 64 mg/L and an MIC ([15]; Staphylococcus aureus, 10B) of 0.2 mg/L. The MIC (Proteus rettgeri 856; 856) was 16 mg/L and the MIC [16] was 32 mg/L.

Compound `Cc1nnc(CCCC2=C(C(=O)O)N3C(=O)[C@H](CO)[C@H]3S2)o1` [Verbindung B, (5R,65)-2-[3-(2-Methyl-1,3,4-oxadiazo1-5-yl)-propyl]-6-hydroxymethyl-2-penem-3-carbonsäure] has an MIC ([1]; Klebsiella pneumoniae 327, in vitro, read-out: MIC) of 2 mg/L (≈ 6.15 µM), an ED50 ([2]; mouse, systemic infection by Staphylococcus aureus lOB, subcutaneous application, read-out: ED50) of 0.3 to 30 mg/kg and an MIC (Escherichia coli 16; Escherichia coli 16, in vitro, read-out: MIC) of 16 mg/L (≈ 49.2 µM). It also gave an MIC [3] of 0.1 mg/L (≈ 0.307 µM), an MIC ([4]; Haemophilus influenzae NCTC 4560, in vitro, read-out: MIC) of 2 mg/L (≈ 6.15 µM) and an MIC (Escherichia coli 205; Escherichia coli 205, in vitro, read-out: MIC) of 1 mg/L (≈ 3.07 µM). For the same compound, the MIC (Proteus morganii 1518; Proteus morganii 1518, in vitro, read-out: MIC) was 8 mg/L (≈ 24.6 µM), the MIC [5] was 16 mg/L (≈ 49.2 µM) and the MIC (Proteus mirabilis 774; Proteus mirabilis 774, in vitro, read-out: MIC) was 2 mg/L (≈ 6.15 µM). For the same compound, the MIC ([6]; Pseudomonas aeruginosa ATCC 12055, in vitro, read-out: MIC) was > 32 mg/L, the MIC (Escherichia coli DC 2) was 1 mg/L (≈ 3.07 µM) and the MIC (Escherichia coli UB 1005) was 2 mg/L (≈ 6.15 µM). It also gave an MIC ([7]; Streptococcus pyogenes Aronson, in vitro, read-out: MIC) of 0.1 mg/L (≈ 0.307 µM), an MIC ([8]; Neisseria gonorrhoeae 1317-4, in vitro, read-out: MIC) of 0.01 mg/L (≈ 0.0307 µM) and an MIC [9] of 4 mg/L (≈ 12.3 µM). It also gave an MIC (Proteus mirabilis 1219; Proteus mirabilis 1219, in vitro, read-out: MIC) of 4 mg/L (≈ 12.3 µM), an MIC ([10]; Staphylococcus aureus 2999i+p+, in vitro, read-out: MIC) of 0.2 mg/L (≈ 0.615 µM) and an MIC [11] of 2 mg/L (≈ 6.15 µM). The MIC ([12]; Streptococcus pneumoniae III/84, in vitro, read-out: MIC) was 0.05 mg/L (≈ 0.154 µM), the MIC (Proteus morganii 2359; Proteus morganii 2359, in vitro, read-out: MIC) was 2 mg/L (≈ 6.15 µM) and the MIC ([13]; Bacteroides fragilis L 01, in vitro, read-out: MIC) was 0.5 mg/L (≈ 1.54 µM). The MIC ([14]; Neisseria meningitidis 1316, in vitro, read-out: MIC) was 0.05 mg/L (≈ 0.154 µM), the MIC (Serratia marcescens 344; Serratia marcescens 344, in vitro, read-out: MIC) was 16 mg/L (≈ 49.2 µM) and the MIC ([15]; Staphylococcus aureus 10 B, in vitro, read-out: MIC) was 0.2 mg/L (≈ 0.615 µM). The MIC (Proteus rettgeri 856; Proteus rettgeri 856, in vitro, read-out: MIC) was 4 mg/L (≈ 12.3 µM) and the MIC ([16]; Streptococcus faecalis D 3, in vitro, read-out: MIC) was 32 mg/L (≈ 98.4 µM).
